In US20080269310A1, “Synergistic Combinations” (priority 2005, published 2008):
Where two headings read alike, the source gives them in different places.

Key:
[1] = system: COX-2 isozyme compared to the COX-1 isozyme; conditions: horses; American Journal of Veterinary Research, 2001, 62, 11, 1755; cited from earlier work
[2] = system: carrageenan-induced thermal hyperalgesia; assay: rat carrageenan footpad thermal hyperalgesia assay (Hargreaves test); type: in vivo; conditions: gabapentin 10-100 mg/kg SC, carprofen 1-10 mg/kg SC, combination in fixed 10:1 ratio
Experimental: The aim of this experiment was to characterize the anti-nociceptive and anti-inflammatory effects of gabapentin administered in combination with carprofen in the rat. In this example, gabapentin, carprofen, and the combination of gabapentin and carprofen were evaluated in a standard rat carrageenan footpad thermal hyperalgesia assay. This assay utilizes an extract of seaweed (carrageenan) that, when injected into the footpad of test animals, causes a sterile inflammation, thereby lowering the pain threshold. […]
Each data point represents the mean and standard error of mean. […] The theoretical dose-additive line for a 10:1 dose ratio was determined (dotted line) as described (Tallarida, 1992). The experimental determination of a 10:1 dose ratio was determined (gabapentin-carprofen mixture 10:1) and a shift to the left of the theoretical dose-additive line was found. […]
Dose-effect curves were first determined for (1) gabapentin by itself and (2) carprofen by itself. The ED50 value of each agent was determined, as was the time to peak effect. […]
Carrageenan-induced thermal hyperalgesia: Rats were acclimated to a testing chamber whose glass floor was maintained at 25° C. One hour later, a high intensity beam of light was focused through the glass on the ventral surface of each hind paw, and the latency to reflex withdrawal of the paw from the light beam was measured to the nearest 0.1 second. […]

[3] = system: COX-2 isozyme compared to the COX-1 isozyme; conditions: cats; American Journal of Veterinary Research, 2001, 62, 11, 1755; cited from earlier work
[4] = system: COX-2 isozyme compared to the COX-1 isozyme; conditions: dogs, cited from earlier work

| SMILES | selectivity for the COX-2 isozyme compared to the COX-1 isozyme [1] | antihyperalgesic action (in words) [2] | selectivity for the COX-2 isozyme compared to the COX-1 isozyme [3] | selectivity for the COX-2 isozyme compared to the COX-1 isozyme ([4]; American Journal Veterinary Research, 2000, 61, 7, 802) | selectivity for the COX-2 isozyme compared to the COX-1 isozyme ([4]; American Journal Veterinary Research, 2002, 63, 1, 91) | selectivity for the COX-2 isozyme compared to the COX-1 isozyme ([4]; American Journal of Veterinary Research, 2001, 62, 11, 1755) | selectivity for the COX-2 isozyme compared to the COX-1 isozyme ([4]; WO 98/50033) |
| --- | --- | --- | --- | --- | --- | --- | --- |
| CC(C(=O)O)c1ccc2c(c1)[nH]c1ccc(Cl)cc12 (stereo not drawn) [carprofen, 6-chloro-α-methyl-9H-carbazole-2-acetic acid] | 1.6 fold | antihyperalgesic actions | 5.5 fold | 1.75 fold | 16.8 fold | 6.5 fold | 129 fold |
| NCC1(CC(=O)O)CCCCC1 [gabapentin, 1-(aminomethyl)-cyclohexylacetic acid] | – | antihyperalgesic actions | – | – | – | – | – |
